{"source": "patent US20030148963A1", "about": "(priority 2000, published 2003)", "key": {"[1]": {"system": "collagen induced arthritis (CIA)", "assay": "Collagen induced arthritis, clinical evaluation", "format": "in vivo, B10.QxDBA/1 female mice", "protocol": "B10.QxDBA/1 female mice were used in all experiments. They were aged from 11-16 weeks. In all experiments the mice were age-matched. The mice were kept in the animal facility at the University of Göteborg, under standard conditions of light and temperature and fed standard laboratory chow and water ad libitum.\nRat type II collagen (CII) from a chondrosarcoma was prepared by pepsin digestion and purification as described previously (9). The preparation of CII was dissolved at a concentration of 2 mg/ml in 0.1M acetic acid and stored at 4° C. Arthritis was induced by intradermal injection at the base of the tail with 50 μl of 100 μg CII emulsified with an equal volume of complete Freuid/s adjuvant (CFA; containing Mycobacterium butyricum, Difco, Detroit, Mich.). Mice were boosted with the same volume and concentrations of CII emulsified in incomplete Freund's adjuvant (IFA; Difco) 21 days after the first immunization.\nMice were primed and booster-immunized with CII. They were divided into three groups. […] The third group of mice were controls (n—17), receiving treatment with PBS. Prior to the start of the experiment, six mice in each group were bled for hematological analyses.\nAt regular time points the mice were examined concerning development of arthritis. Arthritis was defined as visible joint erythema and/or swelling of at least one joint. To evaluate the intensity of arthritis, a clinical scoring system of 0 to 3 points for each limb was used (1 point, mild swelling and/or erythema; 2 points, moderate swelling and erythema; 3 points, marked swelling and erythema). The arthritic index was constructed by adding the scores from all four limbs for each animal (11)."}, "[2]": {"system": "T cell mediated DTH reaction", "assay": "Delayed type hypersensitivity to oxazolone (ear swelling)", "format": "in vivo, mice", "settings": "12.5 mg/kg two days, the day before and 1 h before challenge; 24 h; similar to controls"}, "spleen mononuclear cells [3]": {"system": "spleen mononuclear cells", "format": "cell-based, NMRI mice", "settings": "spleen cells from naive mice, etoposide 1, 10, 100 μM; FIG. 2"}, "IL-6": {"system": "IL-6", "assay": "Serum IL-6 in S. aureus infected mice (B9 bioassay)", "format": "in vivo, NMRI mice", "settings": "six days after 1.4×10^7 CFU S. aureus; 12.5 mg/kg from three days prior; mean ± SEM, n = 6", "protocol": "The cell line B 13,29, subclone B9, which is dependent on IL-6 for its growth, was used for IL-6 determinations. The cells were seeded into microtiter plates at a concentration of 5000 cells/well and samples in different dilutions were added. One μCi of (3H) TdR (Amersham) was added after 68 h of culture, and the cells were harvested 4 h later. The results were compared with recombinant IL-6 standard (Genzyme, Cambridge, Mass.). The B9 cells were previously shown not to react with several recombinant cytolines including IL.-1, IL.-, L-2, IL-3, IL-5, granulocyte/macrophage CS17, TNF.-, and IFN.-, There was only a weak reactivity with IL-4 [14]."}, "[4]": {"system": "granulocyte mediated inflammatory response", "assay": "Olive oil induced inflammation (foot-pad swelling)", "format": "in vivo", "settings": "non-infected mice, n=6, 24 h after injection; no difference to controls", "protocol": "Olive oil induces in vivo a strong granulocyte mediated but T cell independent inflammatory response. Inflammation was induced by injection of 30 μl olive oil (Apoteksbolaget AB, Göteborg, Sweden) intradermally in hind foot-pad. […] Foot-pad swelling was registered 24 h after injection using an Oditest spring caliper. The intensity of the olive oil induced inflammation was expressed (foot-pad thickness^24 h−foot-pad thickness^0 h)×10^−3 cm."}, "[5]": {"system": "S. aureus-induced arthritis", "assay": "Histopathological and immunohistochemical examination of joints, S. aureus arthritis", "format": "in vivo, NMRI mice", "protocol": "The mice were sacrificed 6 days after bacterial inoculation One front and one hind paw from each animal in both groups (etoposide-treated and controls) were removed. Histopathological examination was performed after routine fixation, decalcification, paraffin embedding, and staining with hematoxylin and eosin. All the slides were coded and the joints were studied with regard to synovial hypertrophy (defined as a synovial membrane thickness of more than two cell layers), pannus formation (synovial tissue overlaying the joint cartilage), and cartilage and bone destruction.\nIn another experiment, mice were killed by cervical dislocation 6 days after bacterial inoculation, all four limbs were removed and demineralized by a procedure detailed in an earlier report. The demineralized specimens were mounted on cryostat chucks, frozen in isopentane prechilled by liquid nitrogen, and kept at −70° C. until cryosectioned. Six μm-thick sections were cut frontally to permit simultaneous inspection of most joints within the paw. All sections were fixed in cold acetone for 5 min, washed in PBS, and depleted of endogenous peroxidase by treatment with 0.3% H2O2 for 5 min. The sections were incubated overnight in a humid atmosphere at +4° C. with 50 μl portions of unlabelled rat monoclonal antibody specific for macrophages (Mac-3, clone M3/84 from PharMingen), diluted in PBS containing 1% BSA. Biotin-labelled rabbit antl-rat Ig diluted in PBS-BSA was used as secondary antibody. Binding of secondary antibodies was detected by stepwise incubation with avidin-biotin-peroxidase complexes (ABC) and a buffert containing 3-amino-9-ethyl-carbazole and H2O2. All sections were counterstained with Mayer's hematoxylin."}, "S. aureus LS-1": {"system": "S. aureus LS-1", "assay": "Determination of bacterial growth in kidneys, blood and joints", "format": "in vivo", "settings": "for Bacterial growth in blood / Bacterial growth in kidney: mean ± SEM", "protocol": "On days 3 and 6-7 after S. aureus inoculation blood samples were obtained and the kidneys were aseptically removed. Appropriate dilutions were made and 0.1 ml of tissue suspensions and of whole blood was plated on agar plates containing 5% horse blood. Six days after the inoculation bacterial samples from the talocrural and radiocarpal joints were obtained and plated on agar plates, containing 7.5% sodium chloride. After incubation for 48 h at 37° C. the bacterial colonies were counted and tested for catalase and coagulase activity."}, "spleen mononuclear cells [6]": {"system": "spleen mononuclear cells", "format": "cell-based, NMRI mice", "settings": "spleen cells from non-infected mice treated once a day for three days vs controls; FIG. 3"}, "[7]": {"settings": "Day 3 after 1-2×10^7 CFU S. aureus"}, "[8]": {"settings": "Day 6-7 after 1-2×10^7 CFU S. aureus"}}, "note": "Marks after values point to notes of the source that are not given here."}
{"smiles": "COc1cc([C@@H]2c3cc4c(cc3[C@@H](O[C@@H]3O[C@@H]5CO[C@@H](C)O[C@H]5[C@H](O)[C@H]3O)[C@H]3COC(=O)[C@H]23)OCO4)cc(OC)c1O", "note": "[Etoposide]", "values": [{"measurement": "Arthritic score of diseased mice", "setting": "[1]; Etoposide pretreated, Day 46", "value": 0}, {"measurement": "Arthritic score of diseased mice", "setting": "[1]; Etoposide pretreated, Day 53", "value": 0}, {"measurement": "Arthritic score of diseased mice", "setting": "[1]; Etoposide pretreated, Day 61", "value": 0}, {"measurement": "Arthritic score of diseased mice", "setting": "[1]; Etoposide treated (from day 40), Day 46, mean ± SEM", "value": "2.4 ± 0.2 (n = 5)"}, {"measurement": "Arthritic score of diseased mice", "setting": "[1]; Etoposide treated (from day 40), Day 53, mean ± SEM", "value": "5.4 ± 1.3 (n = 5)"}, {"measurement": "Arthritic score of diseased mice", "setting": "[1]; Etoposide treated (from day 40), Day 61, mean ± SEM", "value": "5.6 ± 1.3 (n = 5)"}, {"measurement": "Mice with clinical signs of arthritis", "setting": "[1]; Etoposide-pretreated: 12.5 mg/kg from two days prior to CII immunization, then 4 days weekly, almost nine weeks", "value": "none of 19"}, {"measurement": "Mice exhibiting arthritis at the end of the experiment", "setting": "[1]; Etoposide-treated: 12.5 mg/kg 4 days per week from 40 days after immunization, 5 of 17, controls 53%", "value": 29, "unit": "%"}, {"measurement": "Changes in weight", "setting": "[1]; between or within the groups (pretreated, treated, controls)", "value": "No significant changes in weight"}, {"measurement": "Reduction of frequency of disease", "setting": "[1]; mice treated with etoposide at the onset of clinical arthritis", "value": 50, "unit": "%"}, {"measurement": "DTH reaction to oxazolone (ear thickness increase)", "setting": "[2]", "value": "32±6 ×10^−3 cm"}, {"measurement": "Proliferative responses to Con A and TSST-1", "setting": "spleen mononuclear cells [3]", "value": "significantly decreased upon increasing concentrations"}, {"measurement": "Serum IL-6", "setting": "IL-6", "value": "11.927 ± 4.610^b pg/ml"}, {"measurement": "Foot-pad swelling, olive oil induced inflammation", "setting": "[4]", "value": "128±131 ×10^−3 cm"}, {"measurement": "Mice with cartilage and bone destructions", "setting": "[5]; 6 days after S. aureus inoculation, controls 8 out of 10", "value": "4 out of 8"}, {"measurement": "Mice with synovial hypertrophy", "setting": "[5]; 6 days after S. aureus inoculation, controls 9 out of 10", "value": "4 out of 8"}, {"measurement": "Numbers of Mac-3 positive cells in joints", "setting": "[5]; S. aureus infected, etoposide vs PBS, data not shown", "value": "did not show any significant differences"}, {"measurement": "Mice with bacteria recovered from joints", "setting": "S. aureus LS-1; 6 days after inoculation, controls 3 out of 10", "value": "3 out of 8"}, {"measurement": "Bacterial growth in blood", "setting": "S. aureus LS-1; [7]", "value": "60 × 10^7 CFU/ml"}, {"measurement": "Bacterial growth in kidney", "setting": "S. aureus LS-1; [7]", "value": "3 ± 2 × 10^7 CFU"}, {"measurement": "Bacterial growth in blood", "setting": "S. aureus LS-1; [8]", "value": "290 ± 100 × 10^7 CFU/ml"}, {"measurement": "Bacterial growth in kidney", "setting": "S. aureus LS-1; [8]", "value": "67 ± 12 × 10^7 CFU"}, {"measurement": "Proliferative response, Con A stimulated", "setting": "spleen mononuclear cells [6]", "value": "not when stimulated with Con A"}, {"measurement": "Proliferative response, TSST-1 stimulated", "setting": "spleen mononuclear cells [6]", "value": "lower proliferative response"}]}
